Experimental data taken from patent US20220185764A1, “Resveratrol derivative and anti-fibrotic method using the same” (TAIZHOU HUAYUAN MEDICINAL TECH CO. LTD., priority 2020, published 2022).

Tests used:
[1] = system: CCl4 induced liver fibrosis in rats; experiment: Evaluation of anti-liver fibrosis in vivo (CCl4 induced liver injury/fibrosis); parameters: species or system SD rats; details: test compound 10 mg/ml, 0.5 ml/100 g intragastric 1 time/day, 8 weeks; for GSH-PX / HYP / MDA / SOD: liver tissue, ELISA kit, CCl4 rats; for ALP / ALT / AST / LDH: serum, male SD rats, 40% CCl4 oil i.p. 1 time/3 days
Description: CCl4 was prepared into a 40% CCl4 oil with commercially available non-genetically modified peanut oil. The test compound was prepared into a 10 mg/ml solution with a 0.5% sodium carboxymethyl cellulose solution, for later use.
Adult male SD rats were randomly divided into a normal control group, a model group and a drug treatment group. The rats in the normal control group were intraperitoneally injected with peanut oil (0.3 ml/100 g, 1 time/3 days), and intragastrically administrated with 0.5% sodium carboxymethyl cellulose solution (0.5 ml/100 g, 1 time/1 day). The rats in the model group were intraperitoneally injected with 40% CCl4 oil (0.3 ml/100 g, 1 time/3 days), and intragastrically administrated with 0.5% sodium carboxymethyl cellulose solution (0.5 ml/100 g, 1 time/day). The rats in the drug treatment group were intraperitoneally injected with 40% CCl4 oil (0.3ml/100 g, 1 time/3 days), and intragastrically administrated with the 0.5% sodium carboxymethyl cellulose solution of the test compound (0.5 ml/100 g, 1 time/day). Rats in each group were bred in an air-conditioned animal laboratory with a temperature of (23±1)° C. and a relative humidity of (45±5)%, with day and night alternating every 12 hours, and they were free to eat and drink.
After being fed for 8 weeks, all the rats were fasted for 12 hours. After anesthesia, the blood of the rat was collected from the femoral artery, and the whole liver tissue was quickly weighed and frozen in liquid nitrogen for later use. 3 rats in each group were taken and their livers were cut, soaked into formalin solution for 24 h and prepared to paraffin-embedded pathological sections. The whole blood of the rats was centrifuged at 3000 r/min for 10min to obtain the separated serum, which was then frozen and stored for later use.
Alanine aminotransferase (ALT), aspartate aminotransferase (AST), alkaline phosphatase (ALP), and lactate dehydrogenase (LDH) in the serum were measured by Hitachi 7600 automatic biochemical analyzer.
The concentration of hydroxyproline (HYP) or malondialdehyde (MDA), and the activity of superoxide dismutase (SOD) or glutathione peroxidase(GSH-Px) in liver tissues were detected according to the corresponding operation steps of ELISA kit (Nanjing Jiancheng Biological Company).

[2] = system: liver function in mice; experiment: Evaluation of subacute toxicity (continuous administration, liver function); format: in vivo; parameters: AST / ALP: unit not given here; details: serum; male ICR mice, 200 mg/kg intragastric once a day for 4 consecutive weeks
Description: Male ICR mice aged 6-8 weeks were fasted for 16 hours and randomly divided into groups, 5 mice per group. The test compound was formulated into a suspension with a 0.5% sodium carboxymethyl cellulose solution, and administered intragastrically at a concentration of 200 mg/kg, once a day for 4 consecutive weeks. After the last administration, the mice were fasted for 12 hours but were free to drink water during the fasting period. Then the mice were anesthetized. Blood was taken from the abdominal aorta and serum was prepared for the determination of blood biochemical and immunological indicators. EDTA anticoagulant blood was prepared for routine blood measurement. Except for some significant increase in transaminase (ALT, AST, […]) of some drug administration groups, there were no significant differences in other indicators among the groups.

[3] = system: bleomycin-induced pulmonary fibrosis in rats; experiment: Evaluation of anti-pulmonary fibrosis in vivo (bleomycin-induced); parameters: species or system SD rats; details: lung tissue, 14th day
Description: Bleomycin (batch number: 16037911, Hisun Pfizer Co., Ltd.) was prepared into a 5 mg/mL solution with normal saline; and the test compound was prepared into a solution with a 0.5% sodium carboxymethyl cellulose solution to a certain concentration for later use.
Adult male SD rats were randomly divided into a normal control group, a model group and a drug treatment group. After the animals in each group were anesthetized by intraperitoneal injection of 20% urethane (10 mL/kg), they were incised in the middle of the neck to expose the trachea. The rats in the normal control group were injected with 0.2 ml normal saline into the trachea all at once, and intragastrically administrated with 0.5% sodium carboxymethyl cellulose solution (0.5 ml/100 g, 1 time/day) the next day. The rats in the model group were injected with 0.2 ml of bleomycin solution into the trachea all at once, and simultaneously intragastrically administrated with 0.5% sodium carboxymethyl cellulose solution (0.5 ml/100 g, 1 time/day). The rats in the drug treatment group were injected with 0.2 ml bleomycin solution into the trachea all at once and simultaneously intragastrically administrated with the 0.5% sodium carboxymethyl cellulose solution of the test compound at different concentrations (0.5 ml/100 g, 1 time/day). The rats in each group were bred in an air-conditioned animal laboratory with a temperature of (23±1)° C. and a relative humidity of (45±5)%, with day and night alternating every 12 hours, and they were free to eat and drink. The rats were fasted for 12 hours on the 14th day after administration. After anesthesia, the blood of the rat was collected from the femoral artery and the lung tissue was separated. The right lung was perfused with 10% neutral formaldehyde through the trachea and then was put into stationary liquid for fixation and pathological examination. The left lung was cryopreserved in a refrigerator at -80° C. for testing the biochemical indicators.
The contents of HYP, MDA, GSH and SOD in lung tissues were detected according to the corresponding operation steps of ELISA kit (Nanjing Jiancheng Biological Company).

[4] = dose 50 mg/kg intragastric 1 time/day
[5] = dose 100 mg/kg intragastric 1 time/day

SMILES	GSH-PX [1] [U/mg protein]	HYP [1] [μg/mg protein]	MDA [1] [nmol/mg protein]	SOD [1] [U/mg protein]	ALP [1] [U/L]	ALT [1] [U/L]	AST [1] [U/L]	LDH [1] [U/L]	ALP [2]	ALT [2] [U/L]	AST [2]	HYP [3, 4] [μg/mg protein]	MDA [3, 4] [nmol/mg protein]	HYP [3, 5] [μg/mg protein]	MDA [3, 5] [nmol/mg protein]
COc1ccc(/C=C/c2cc(OC)cc(OCCCC(C)(C)C(=O)O)c2)cc1 [Compound I-1b, 3,4′-dimethoxy-5-(4-methyl-4-carboxypentyloxy)-(E)-stilbene]	204.78 ± 27.75	0.59 ± 0.06	0.72 ± 0.12	29.99 ± 5.24	149.9 ± 52.9	85.3 ± 46.4	209.1 ± 63.2	843.1 ± 247.9	471.35 ± 29.88	47.33 ± 10.61	161.6 ± 18.32	0.71 ± 0.17	0.91 ± 0.05	0.54 ± 0.12	0.84 ± 0.09
[2H]C([2H])([2H])Oc1ccc(/C=C/c2cc(OCCCC(C)(C)C(=O)O)cc(OC([2H])([2H])[2H])c2)cc1 [Compound I-2b, 3,4′-bis-[(trideuteratedmethyl)-oxy]-5-(4-methyl-4-carboxypentyloxy)-(E)-stilbene]	231.48 ± 58.72	0.58 ± 0.29	0.70 ± 0.08	33.60 ± 7.64	141.6 ± 27.6	69.1 ± 23.3	192.4 ± 78.4	836.5 ± 375.5	242.83 ± 83.29	26.47 ± 6.79	105.33 ± 16.85	0.52 ± 0.11	0.75 ± 0.13	0.45 ± 0.08	0.76 ± 0.06
[2H]C([2H])([2H])Oc1ccc(/C=C/c2cc(OC)cc(OCCCC(C)(C)C(=O)O)c2)cc1 [Compound I-3b, 3-methoxy-4′-trideuterated methoxy-5-(4-methyl-4-carboxypentyloxy)-(E)-stilbene]	194.09 ± 32.82	0.70 ± 0.61	0.92 ± 0.43	31.33 ± 6.50	154.3 ± 65.0	79.9 ± 43.8	221.9 ± 109.4	780.4 ± 152.3	381.67 ± 221.42	36.57 ± 10.40	138.32 ± 29.72	0.51 ± 0.09	0.81 ± 0.09	0.47 ± 0.10	0.73 ± 0.06
[2H]C([2H])([2H])Oc1cc(/C=C/c2ccc(OC)cc2)cc(OCCCC(C)(C)C(=O)O)c1 [Compound I-4b, 3-trideuterated methoxy-4′-methoxy-5-(4-methyl-4-carboxypentyloxy)-(E)-stilbene]	224.33 ± 2.16	0.68 ± 0.27	0.77 ± 0.14	28.64 ± 6.33	140.8 ± 60.2	91.3 ± 32.5	233.5 ± 90.6	771.1 ± 210.2	258.33 ± 219.45	16.07 ± 2.45	72.73 ± 15.82	0.74 ± 0.19	0.96 ± 0.19	0.59 ± 0.12	0.78 ± 0.24
Oc1ccc(C=Cc2cc(O)cc(O)c2)cc1 [Resveratrol]	174.33 ± 40.75	0.93 ± 0.15	1.17 ± 0.35	28.09 ± 4.55	203.6 ± 43.9	96.8 ± 41.9	205.33 ± 85.3	846.5 ± 261.2	–	–	–	–	–	0.75 ± 0.34	0.92 ± 0.33
